Calls of active or inactive are those of the source. The rule behind the calls is not given here.
Key:
[1] = Photorelease activity in PBS buffer at pH 7.4 assessed as release of CO using 3',6'-Bis(allyloxy)-3H-spiro(isobenzofuran-1,9'-xanthen)-3-one fluorescent probe by measuring red shift absorption spectra at 500 uM irradiated with >= 365 nm Hg lamp in presence of PdCl2 by absorption spectroscopy; type: physicochemical; details: pH 7.4, 500 µM, TDE = time-dependent effect
[2] = Photorelease activity in PBS buffer at pH 7.4 assessed as release of CO in absence of light irradiation by absorption spectroscopy; type: physicochemical
B16-F10 [3] = experiment: Photorelease activity in mouse B16-F10 cells assessed as uncaging of active molecules of drug by measuring green fluorescence at 20 uM incubated for 4 hrs irradiated with >= 365 nm Hg lamp for 5 mins and further incubated for 4 hrs by propidium iodide staining based confocal laser scanning microscopy; type: functional, cell-based; details: time 8.0 hrs
B16-F10 [4] = experiment: Cytotoxicity against mouse B16-F10 cells assessed as cell viability at 2.5 uM irradiated with >= 365 nm Hg lamp for 5 mins after 6 hrs post-treatment and further incubated for 72 hrs by MTT assay; type: functional; details: B16-F10, light or radiation study, time 78 hrs, read-out: Activity
HEK293 [5] = experiment: Induction of apoptosis in HEK293 cells assessed as viable cells at 5 uM incubated for 24 hrs by annexin-V-FITC and PI staining based flow cytometry analysis (reference value: 99.9 %); type: functional; details: Homo sapiens, read-out: Activity
HEK293 [6] = experiment: Induction of apoptosis in HEK293 cells assessed as viable cells at 5 uM with light irradiation incubated for 24 hrs by annexin-V-FITC and PI staining based flow cytometry analysis (reference value: 99.9 %); type: functional; details: Homo sapiens, HEK293, light or radiation study, read-out: Activity
HEK293 [7] = experiment: Induction of apoptosis in HEK293 cells assessed as early apoptotic cells at 5 uM with light irradiation incubated for 24 hrs by annexin-V-FITC and PI staining based flow cytometry analysis (reference value: 0.1 %); type: functional, Homo sapiens
B16-F10 [8] = experiment: Induction of apoptosis in mouse B16-F10 cells assessed as viable cells at 5 uM incubated for 24 hrs by annexin-V-FITC and PI staining based flow cytometry analysis (reference value: 99.9 %); type: functional; details: read-out: Activity
B16-F10 [9] = experiment: Induction of apoptosis in mouse B16-F10 cells assessed as early apoptotic cells at 5 uM incubated for 24 hrs by annexin-V-FITC and PI staining based flow cytometry analysis (reference value: 0 %); type: functional
B16-F10 [10] = experiment: Induction of apoptosis in mouse B16-F10 cells assessed as viable cells at 5 uM with light irradiation incubated for 24 hrs by annexin-V-FITC and PI staining based flow cytometry analysis (reference value: 99.9 %); type: functional; details: B16-F10, light or radiation study, read-out: Activity
B16-F10 [11] = experiment: Induction of apoptosis in mouse B16-F10 cells assessed as early apoptotic cells at 5 uM with light irradiation incubated for 24 hrs by annexin-V-FITC and PI staining based flow cytometry analysis (reference value: 0 %); type: functional
B16-F10 [12] = experiment: Induction of apoptosis in mouse B16-F10 cells assessed as late apoptotic cells at 5 uM with light irradiation incubated for 24 hrs by annexin-V-FITC and PI staining based flow cytometry analysis (reference value: 0.1 %); type: functional
B16-F10 [13] = experiment: Biodistribution in tumor site of C57BL/6 mouse model harboring mouse B16-F10 cells at 0.4 mg/kg, iv irradiated with >= 365 nm Hg lamp for 10 mins measured after 24 hrs post-administration by fluorescence based assay; type: ADME, organism-based; details: in vivo, 24.17 h, time 1450 min
[14] = Biodistribution in kidney of C57BL/6 mouse model harboring mouse B16-F10 cells at 0.4 mg/kg, iv irradiated with >= 365 nm Hg lamp for 10 mins measured after 24 hrs post-administration by fluorescence based assay; type: ADME, organism-based; details: in vivo, 24.17 h, time 1450 min
[15] = Biodistribution in spleen of C57BL/6 mouse model harboring mouse B16-F10 cells at 0.4 mg/kg, iv irradiated with >= 365 nm Hg lamp for 10 mins measured after 24 hrs post-administration by fluorescence based assay; type: ADME, organism-based; details: in vivo, 24.17 h, time 1450 min
B16-F10 [16] = experiment: Antitumor activity against mouse B16-F10 cells bearing C57BL/6J mouse assessed as tumor regression at 0.4 mg/kg, iv administered alternate days for 24 days followed by irradiation with pulsed laser at 730 nm for 10 mins after 24 hrs each post-injection and measured on day 25 by slide caliper method; type: functional, organism-based; details: time 25.0 day
[17] = Toxicity in C57BL/6J mouse model harboring mouse B16-F10 cells assessed as change in body weight at 0.4 mg/kg, iv administered alternate days for 24 days followed by irradiation with pulsed laser at 730 nm for 10 mins after 24 hrs each post-injection; type: organism-based; details: in vivo, 600 h, 0.73 µM, time 25 day
[18] = Toxicity in C57BL/6J mouse model harboring mouse B16-F10 cells assessed as change in movement at 0.4 mg/kg, iv administered alternate days for 24 days followed by irradiation with pulsed laser at 730 nm for 10 mins after 24 hrs each post-injection by hematoxylin and eosin staining based assay; type: organism-based; details: in vivo, 600 h, 0.73 µM, time 25 day
[19] = Toxicity in C57BL/6J mouse model harboring mouse B16-F10 cells assessed as liver tissue necrosis at 0.4 mg/kg, iv administered alternate days for 24 days followed by irradiation with pulsed laser at 730 nm for 10 mins after 24 hrs each post-injection by hematoxylin and eosin staining based assay; type: organism-based; details: in vivo, 600 h, 0.73 µM, time 25 day
[20] = Toxicity in C57BL/6J mouse model harboring mouse B16-F10 cells assessed as lung tissue necrosis at 0.4 mg/kg, iv administered alternate days for 24 days followed by irradiation with pulsed laser at 730 nm for 10 mins after 24 hrs each post-injection by hematoxylin and eosin staining based assay; type: organism-based; details: in vivo, 600 h, 0.73 µM, time 25 day
[21] = Toxicity in C57BL/6J mouse model harboring mouse B16-F10 cells assessed as spleen tissue necrosis at 0.4 mg/kg, iv administered alternate days for 24 days followed by irradiation with pulsed laser at 730 nm for 10 mins after 24 hrs each post-injection by hematoxylin and eosin staining based assay; type: organism-based; details: in vivo, 600 h, 0.73 µM, time 25 day
[22] = Toxicity in C57BL/6J mouse model harboring mouse B16-F10 cells assessed as tumor tissue necrosis at 0.4 mg/kg, iv administered alternate days for 24 days followed by irradiation with pulsed laser at 730 nm for 10 mins after 24 hrs each post-injection by hematoxylin and eosin staining based assay; type: organism-based; details: in vivo, 600 h, 0.73 µM, time 25 day
[23] = Photolysis of compound in PBS buffer at pH 7.4 assessed as compound decomposition by measuring final photoproduct formation at 0.1 mM irradiated with >= 365 nm for 30 mins by RP-HPLC analysis; type: physicochemical; details: pH 7.4, 0.5 h, 100 µM

Structure (SMILES): CCn1c2ccc(-c3coc(=O)o3)cc2c2cc(-c3coc(=O)o3)ccc21
- Drug metabolism [1]: Tde
- Drug metabolism [2]: Not Active
- Drug metabolism (B16-F10 [3]): 100%
- viability at 2.5 µM (B16-F10 [4]): 21%
- viability at 5 µM (HEK293 [5]): 98.9%
- viability at 5 µM (HEK293 [6]): 46.4%
- Activity (HEK293 [7]): 46.3%
- viability at 5 µM (B16-F10 [8]): 99%
- Activity (B16-F10 [9]): 1%
- viability at 5 µM (B16-F10 [10]): 51.4%
- Activity (B16-F10 [11]): 32.8%
- Activity (B16-F10 [12]): 15.4%
- Drug uptake (B16-F10 [13]): Active
- Drug uptake [14]: Active
- Drug uptake [15]: Active
- Activity (B16-F10 [16]): Active
- Activity [17]: Non-Toxic
- Activity [18]: Non-Toxic
- Activity [19]: Non-Toxic
- Activity [20]: Non-Toxic
- Activity [21]: Non-Toxic
- Activity [22]: Toxic
- Drug degradation [23]: 89%

From ChEMBL document CHEMBL5042522, “One- and Two-Photon Uncaging of Carbon Monoxide (CO) with Real-Time Monitoring: On-Demand Carbazole-Based Dual CO-Releasing Platform to Test over Single and Combinatorial Approaches for the Efficient Regression of Orthotopic Murine Melanoma In Vivo” (J Med Chem, 2022)
